Columns and labels:
PDE2 = biological target: T1, PDE2 (Bos taurus, UniProt P14099); assay: PDE assay, PDE2 enzyme solution from bovine adrenal gland; assay type: biochemical, Japanese Black Cattle; conditions: substrate about 12 nM [3H]-cGMP and 1 μM cGMP
T1 construct: tissue Tokyo Shibaura Zoki; host or cells: bovine adrenal gland, soluble fraction, ion-exchange fractions
T1 sequence (P14099 1-921): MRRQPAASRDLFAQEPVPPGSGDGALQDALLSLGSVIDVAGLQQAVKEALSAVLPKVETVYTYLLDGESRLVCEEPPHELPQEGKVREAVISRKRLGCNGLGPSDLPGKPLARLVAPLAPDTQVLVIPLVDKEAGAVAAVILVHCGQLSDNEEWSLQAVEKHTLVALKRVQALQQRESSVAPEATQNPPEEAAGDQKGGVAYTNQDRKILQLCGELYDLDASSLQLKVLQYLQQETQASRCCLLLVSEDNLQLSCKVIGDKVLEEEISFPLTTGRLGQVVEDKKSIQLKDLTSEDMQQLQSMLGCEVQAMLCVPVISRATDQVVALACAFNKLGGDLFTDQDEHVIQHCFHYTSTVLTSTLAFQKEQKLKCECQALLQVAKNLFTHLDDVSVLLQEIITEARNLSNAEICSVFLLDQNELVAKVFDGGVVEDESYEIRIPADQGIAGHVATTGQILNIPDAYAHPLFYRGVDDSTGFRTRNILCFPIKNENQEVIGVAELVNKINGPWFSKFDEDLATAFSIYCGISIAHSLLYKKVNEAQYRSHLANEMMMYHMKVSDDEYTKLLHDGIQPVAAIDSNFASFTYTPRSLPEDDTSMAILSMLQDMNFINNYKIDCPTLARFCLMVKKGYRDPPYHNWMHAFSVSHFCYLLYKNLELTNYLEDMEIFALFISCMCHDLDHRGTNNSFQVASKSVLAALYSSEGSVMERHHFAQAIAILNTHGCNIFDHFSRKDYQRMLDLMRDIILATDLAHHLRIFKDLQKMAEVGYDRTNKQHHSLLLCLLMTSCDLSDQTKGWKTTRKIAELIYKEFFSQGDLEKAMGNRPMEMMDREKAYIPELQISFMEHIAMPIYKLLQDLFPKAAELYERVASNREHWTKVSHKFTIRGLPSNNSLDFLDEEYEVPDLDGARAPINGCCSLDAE
Description: One adrenal gland of Japanese Black Cattle, purchased from Tokyo Shibaura Zoki, co., Ltd. was washed with 100 ml of ice-cold saline (0.9% sodium chloride) twice. Subsequently, the tissues were cut into about 1 gram, and it was frozen by liquid nitrogen. To about 2 g of this tissue sample was added 10 ml of an ice-cold homogenization buffer II (25 mM Tris-HCl, pH 7.5, 4 mM magnesium chloride, 0.5 mM EGTA, 2 mM dithiothreitol, 4 mM benzamidine, 0.1 mM phenylmethylsulfonyl fluoride), and the homogenate that was homogenized by Polytron homogenizer for 3 minutes was centrifuged at 8000 rpm, at 4° C. for 20 minutes, and the obtained supernatant was further centrifuged by an ultracentrifuge at 50000 rpm, at 4° C. for 60 minutes. The resultant supernatant was stored at 4° C.
This supernatant was applied to chromatography under the FPLC system, in the same manner as in Example 1 (1) above. […]
Subsequently, the eluted fractions were used as an enzyme solution for PDE assay, and cGMP-hydrolyzing activity was measured. Or, cAMP-hydrolyzing activity was measured for respective fractions, in the presence or absence of unlabeled cGMP. […]

marmoset MPTP model = assay: Marmoset MPTP model, effect on bromocriptine efficacy; assay type: in vivo; conditions: together with bromocriptine (0.3 mg/kg), versus vehicle with bromocriptine
Description: Using bromocriptine (bromocriptine mesilate) as a dopamine receptor agonist, effect of test compound on pharmaceutical effects caused by administration of dopamine receptor agonist, in marmoset MPTP model was tested as follows.
The same method was employed as in Example 6, except for using bromocriptine (bromocriptine mesilate) in place of L-dopa and benserazide.
Each test was performed with respect to the same individual sequentially, and intervals of 5 days or more were allowed between the tests. • test 1: vehicle • test 2: vehicle and bromocriptine mesilate • test 3: test compound (PDE10 inhibitor) and bromocriptine mesilate
[…] Further, as test compounds, compounds confirmed with PDE10 inhibitory activities were administered via saphenous vein, 90 minutes before administration of bromocriptine mesilate, under anesthesia by ketamine and isoflurane (In test 1 and test 2, only vehicle was administered in place of the test compound in the same manner).
Bromocriptine mesilate was suspended in 0.5% methylcellulose solution on the day of administration and used. Test compound (PDE10 inhibitor) was dissolved in a solvent 30 minutes before administration and used.
After administration of test compound (PDE10 inhibitor) (or vehicle) and bromocriptine mesilate, locomotor activity and motor disability score were evaluated for each individual, in the same manner as in Example 6. […]

IC50 (PDE2): > 1000 nM
Compound: COc1ccc(-c2cc(N3CCCC3)nc(/C=C/c3nc(-n4ccnc4)c4ccccc4n3)n2)cc1OC [Compound A, 2-{(E)-2-[4-(1-imidazolyl)-quinazolin-2-yl]}ethenyl-4-(3,4-dimethoxy)phenyl-6-(pyrrolidin-1-yl)pyrimidine]
effects of bromocriptine to alleviate symptoms (locomotor activity and motor disability score) (marmoset MPTP model): had a tendency to enhance the effects of bromocriptine to alleviate symptoms
